Data published in the NIST ThermoML archive (doi:10.1016/j.fluid.2012.11.008).
± gives the expanded uncertainty stated by the source.

Test: refractive index (Na D-line) (dimensionless)
Conditions: 293.15 K; 101.33 kPa; Liquid; Standard Abbe refractometry

First: CCC=C(C)C [2-methyl-2-pentene]
Second: CCOC(C)=O [ethyl acetate]
The refractive index of the first is higher: 1.4003 ± 0.0008 for the first, 1.3724 ± 0.0007 for the second.

Compared with `CCCCCCC` [heptane], `CCCCCC` [hexane] is lower in refractive index: 1.3878 ± 0.0007 for the first, 1.3752 ± 0.0007 for the second.

Compared with `CCO` [ethanol], `CO` [methanol] is lower in refractive index: 1.3618 ± 0.0007 for the first, 1.3287 ± 0.0007 for the second.

Compared with `COC(C)(C)C` [2-methoxy-2-methylpropane], `CCC(C)(C)OC` [2-methoxy-2-methylbutane] is higher in refractive index: 1.3689 ± 0.0007 for the first, 1.3886 ± 0.0009 for the second.

In the case of `CC#N` [acetonitrile], the refractive index is reported as 1.3439 ± 0.0007.
